Results taken from patent US20100105748A1, “METHODS AND COMPOSITIONS FOR TREATMENT OF DRUG ADDICTION” (priority 2007, published 2010).
“Also recorded” adds a separate entry of the source. Structures can show the parent of a compound that is named as a salt.

Tests used:
[1] = tested on: rats; conditions: rats / rodents; cited from earlier work
[2] = target: T1, DBH (Homo sapiens, UniProt P09172); conditions: cited from earlier work
T1 sequence (P09172 1-617): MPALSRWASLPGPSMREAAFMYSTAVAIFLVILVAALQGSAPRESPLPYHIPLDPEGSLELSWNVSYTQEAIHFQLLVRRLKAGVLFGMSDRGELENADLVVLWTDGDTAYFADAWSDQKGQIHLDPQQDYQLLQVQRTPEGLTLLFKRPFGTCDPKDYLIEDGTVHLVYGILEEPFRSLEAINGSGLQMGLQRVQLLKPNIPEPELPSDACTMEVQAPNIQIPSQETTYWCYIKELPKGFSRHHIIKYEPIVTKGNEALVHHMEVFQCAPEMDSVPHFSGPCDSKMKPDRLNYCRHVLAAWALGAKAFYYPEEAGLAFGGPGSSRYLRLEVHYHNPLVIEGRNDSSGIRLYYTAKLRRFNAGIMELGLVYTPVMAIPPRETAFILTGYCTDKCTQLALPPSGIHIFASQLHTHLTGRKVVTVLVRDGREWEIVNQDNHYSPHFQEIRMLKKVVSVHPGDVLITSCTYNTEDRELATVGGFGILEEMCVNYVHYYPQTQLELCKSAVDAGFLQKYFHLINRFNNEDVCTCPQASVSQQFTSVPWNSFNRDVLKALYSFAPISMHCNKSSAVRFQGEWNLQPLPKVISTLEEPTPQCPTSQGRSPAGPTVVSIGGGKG

[3] = target: T1, DBH; design: host or cells: human subjects, in vivo; conditions: humans; cited from earlier work
[4] = tested on: DBH; conditions: animals; cited from earlier work
[5] = target: T2, DBH (Mus musculus, UniProt Q64237); conditions: three injections of 200 mg/kg i.p. spaced two hours apart; cited from earlier work
T2 construct: host or cells: peripheral and central tissues of animals, in vivo
T2 sequence (Q64237 1-622): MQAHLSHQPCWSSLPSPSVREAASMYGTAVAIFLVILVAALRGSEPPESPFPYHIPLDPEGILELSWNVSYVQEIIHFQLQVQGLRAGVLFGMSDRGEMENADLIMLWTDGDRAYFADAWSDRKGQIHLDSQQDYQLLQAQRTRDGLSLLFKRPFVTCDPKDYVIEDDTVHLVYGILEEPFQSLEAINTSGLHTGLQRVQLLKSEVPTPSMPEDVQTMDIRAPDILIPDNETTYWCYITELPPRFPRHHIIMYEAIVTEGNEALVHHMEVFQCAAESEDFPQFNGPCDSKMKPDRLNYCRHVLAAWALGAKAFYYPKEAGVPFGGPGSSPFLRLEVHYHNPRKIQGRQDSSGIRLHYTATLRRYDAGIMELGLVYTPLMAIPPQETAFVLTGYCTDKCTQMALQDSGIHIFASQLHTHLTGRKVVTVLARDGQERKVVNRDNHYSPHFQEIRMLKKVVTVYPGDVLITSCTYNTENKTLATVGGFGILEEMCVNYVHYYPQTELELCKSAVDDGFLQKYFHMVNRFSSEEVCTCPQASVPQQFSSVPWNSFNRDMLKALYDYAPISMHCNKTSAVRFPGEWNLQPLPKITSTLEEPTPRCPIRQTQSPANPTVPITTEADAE

[6] = tested on: mice; assay: Cocaine-induced locomotion (ambulations in activity chambers); type: in vivo
Procedure: Locomotor activity measurement: Experiments were conducted in an isolated behavior room between 1000 and 1600 hrs. Ambulations (consecutive beam breaks) were measured in transparent plexiglass cages (40×20×20 cm^3) placed into a rack with seven infrared photobeams spaced 5 cm apart, each end beam 5 cm from the cage wall (San Diego Instruments Inc., LaJolla, Calif.). Mice were placed in the activity chambers for 4 hr, injected with cocaine (5, 10, or 20 mg/kg i.p.; Sigma-Aldrich, St Louis, Mo.), and ambulations were recorded for an additional 2 hr. Data were analyzed by ANOVA followed by Bonferroni post-hoc tests. For the antagonist studies, saline, the 5-HT1A antagonist WAY100635 (0.03 mg/kg), the 5-HT2 antagonist ketanserin (0.3 mg/kg), the D1 antagonist SCH23390 (0.03 mg/kg), or the D2 antagonist eticlopride were injected i.p. 30 min prior to cocaine (20 mg/kg). […] All drugs were purchased from Sigma-Aldrich (St Louis, Mo.).
Mice were implanted with minipumps for delivering either vehicle (50% DMSO, 0.9% NaCl or nepicastat (10 or 50 mg/kg/d). 3 weeks later, the mice were put in activity chambers, allowed to acclimate for 4 hrs, then injected with cocaine (10 mg/kg, i.p.) and ambulations measured for 2 additional hours, as shown in FIG. 8 (N=6 per group).
Two hours later, the mice were put in activity chambers, allowed to acclimate for 4 hrs, injected with cocaine (20 mg/kg, i.p.) and ambulations measured for 2 additional hours. (FIG. 9) (N=8 per group).

[7] = tested on: Dbh +/- and Dbh -/- mice; assay: Elevated plus maze (EPM), cocaine-induced anxiety, Dbh mice; type: in vivo; conditions: for percent open arm time in EPM after cocaine: disulfuram 3x200 mg/kg i.p. two hours apart, cocaine 10 mg/kg i.p. 20 min before test; for percent open arm time in EPM after cocaine (cocaine-induced anxiety): antagonist i.p. 10 min prior to cocaine 10 mg/kg i.p., propranolol 5, prazosin 0.5, yohimbine 2.5 mg/kg; for percent open time in EPM, antagonist alone: same doses, no cocaine, tested 20 minutes later, vs saline-treated
Excerpt: Male and female Dbh +/− and −/− mice (aged 2 to 5 months) were individually housed on a reversed light cycle (lights on at 19:00, lights off at 7:00), and were allowed a minimum of two weeks to habituate to the new lighting conditions after moving from normal light cycle (lights on at 7:00, lights off at 19:00). Food and water were available ad libitum throughout the course of the study. Data from male and female mice were combined, since there were no detectable gender differences. Dbh mice were generated as described (15) and maintained on a mixed C57Bl6/J and 129SvEv background. Dbh +/− mice were used as controls, because they have normal brain catecholamine levels and are behaviorally identical to wild-type (Dbh +/+) mice (14-16). Three-month old male and female C57BL6/J mice (Jackson Labs, Bar Harbor, […].) were also used to generalize the findings from these experiments to a different strain of wild-type mouse. Housing, handling, and testing conditions for these animals were identical to those used in experiments with Dbh +/− mice.
Behavioral testing The EPM apparatus consisted of two open arms and two enclosed arms arranged in a plus orientation. The arms were elevated 30 inches above the floor, with each arm projecting 12 inches from the center. Because rodents naturally prefer dark, enclosed compartments, a greater willingness to explore the open, well-lit arms is believed to represent a decrease in the animal's anxiety. This interpretation has been validated by the efficacy of known anxiolytic and anxiogenic treatments in this paradigm (Paine et al., (2002) Behavioural Pharmacol. 13: […]; Gorman & Dunn (1993) Pharmacol. Biochem. & Behavior 45: 1-7; Pellow et al., (1985) J. Neurosci. Methods 14: 149-167; Johnston & File (1988) Pharmacol. Biochem. & Behavior 32: 151-156).
In all experiments, cocaine was injected 20 minutes prior to behavioral testing as described by Yang and colleagues (Yang et al., (1992) Pharmacol. Biochem. & Behavior 41: 643-650). To begin each test, mice were placed in the EPM facing one of the open arms and allowed to freely explore the apparatus for five minutes, during which time their behavior was videotaped. Videotapes were later scored by an observer who was blind to genotype and treatment group. The measure used for analysis was the percentage of time spent exploring the open arms, which was calculated by dividing the time spent in the open arms by the combined time spent in open and closed arms. Because some drug treatments and genetic manipulations alter overall locomotor activity, it was important to use this percentage measurement as the dependent variable for analysis (Pellow et al., (1985) J. Neurosci. Methods 14: 149-167).
Entry into an arm of the plus maze was defined as the animal placing all four paws in that particular compartment of the apparatus. All tests were run during the dark cycle, between 14:00 and 18:00. Mice were excluded from data analysis for any of the following reasons: if they jumped or fell off the maze after test had begun, if they had […] a seizure while on the testing apparatus, or if their open arm time was detected as an outlier using Grubb's test. Of 253 total mice tested, 10 were excluded from data analysis. Data were analyzed using independent samples t-tests, one-way ANOVA followed by Dunnett's post-hoc tests, or two-way ANOVA followed by Bonferroni post-hoc tests using Prism 4.0 for Macintosh. […]
This dosing regimen is known to decrease NE by ˜70% in the mouse brain (Bourdelat-Parks et al., (2005) Psychopharmacol. 183(1): 72-80). Mice received cocaine (10 mg/kg, i.p. at 10 ml/kg, dissolved in 0.9% saline) or saline two hours after the final pretreatment injection, and behavioral testing took place 20 minutes later, as described above. […]

[8] = tested on: animal models; conditions: cited from earlier work
[9] = tested on: C57BL6/J wild type mice; assay: Elevated plus maze (EPM), cocaine-induced anxiety, wild type C57BL6/J mice; type: in vivo
Procedure: Behavioral testing The EPM apparatus consisted of two open arms and two enclosed arms arranged in a plus orientation. The arms were elevated 30 inches above the floor, with each arm projecting 12 inches from the center. Because rodents naturally prefer dark, enclosed compartments, a greater willingness to explore the open, well-lit arms is believed to represent a decrease in the animal's anxiety. […]
In all experiments, cocaine was injected 20 minutes prior to behavioral testing as described by Yang and colleagues (Yang et al., (1992) Pharmacol. Biochem. & Behavior 41: 643-650). […] Videotapes were later scored by an observer who was blind to genotype and treatment group. The measure used for analysis was the percentage of time spent exploring the open arms, which was calculated by dividing the time spent in the open arms by the combined time spent in open and closed arms. […]
Entry into an arm of the plus maze was defined as the animal placing all four paws in that particular compartment of the apparatus. […] Mice were excluded from data analysis for any of the following reasons: if they jumped or fell off the maze after test had begun, if they had […] a seizure while on the testing apparatus, or if their open arm time was detected as an outlier using Grubb's test. […]

In the case of `S=C(Nc1ccccc1)Nc1nccs1` [U-14,624], the “reinstatement of amphetamine self-administration” value [1] is listed as “block”.

In the case of `CCN(CC)C(=S)SSC(=S)N(CC)CC` [disulfuram, tetraethylthiuram], the “IC50 for DBH” value [2] is given as “low micromolar range”, the “NE and its metabolites in urine, blood, and cerebrospinal fluid” value [3] is given as “decreases” and the “dopamine (DA) in peripheral and central tissues” value [4] is given as “increase dopamine (DA)”. The “norepinepherine (NE) in peripheral and central tissues” value [4] was “decrease norepinepherine (NE)”, the “decrease of NE in the mouse brain” value [5] was roughly 70% and the “locomotion induced by cocaine” value ([6]; disulfuram via osmotic minipump 50 mg/kg/day for 2 to 3 weeks, cocaine 10 mg/kg, cocaine-naive animals) was “decreased”. The “percent open arm time in EPM after cocaine” value [7] was “attenuates cocaine-induced anxiety”, the “percent open arm time in EPM after cocaine” value ([7]; listed as Disulfuram) was “abolished the ability of cocaine to reduce open arm exploration time; also recorded: significantly increased level of open arm exploration” and the “percent open arm time in EPM, saline instead of cocaine” value ([7]; disulfuram 3x200 mg/kg i.p., saline prior to testing) was “no effect”. For the same molecule, the cocaine sensitization [8] was “enhances cocaine sensitization”, the “locomotor response to acute administration of amphetamine” value [8] was “decreases” and the “locomotor response to acute administration of cocaine” value [8] was “decreases”. The “reinstatement of amphetamine self-administration” value [1] was “attenuates; also recorded: block”.

In the case of `NCc1c[nH]c(=S)n1[C@H]1CCc2c(F)cc(F)cc2C1` [nepicastat, S-5-amino methyl-1-(5,7-difluoro-1,2,3,4-tetrahydronapthalyl)-1,3-dihydroimidazole-2-thione hydrochloride], the “locomotion induced by cocaine” value ([6]; prolonged (3 weeks) minipump treatment with 10 or 50 mg/kg/day, cocaine 10 mg/kg i.p., FIG. 8) is reported as “significantly increased” and the cocaine-induced locomotion ([6]; single acute dose 50 mg/kg i.p., cocaine 20 mg/kg i.p., FIG. 9, hydrochloride) is reported as “did not significantly affect; also recorded: does not significantly affect”.

In the case of `COc1cc2nc(N3CCN(C(=O)c4ccco4)CC3)nc(N)c2cc1OC` [prazosin], the “percent open arm time in EPM after cocaine (cocaine-induced anxiety)” value [7] is reported as “preserved; also recorded: did not” and the “percent open time in EPM, antagonist alone” value (from here on “percent open time in EPM”) [7] is reported as “no significant effect”.

In the case of `CC(C)NCC(O)COc1cccc2ccccc12` (stereo not drawn) [propranolol], the “percent open arm time in EPM after cocaine (cocaine-induced anxiety)” value [7] is reported as “abolished; also recorded: differed significantly from the control group; also recorded: attenuates cocaine-induced anxiety”, the “percent open time in EPM” value [7] is reported as “no significant effect” and the “percent open arm time in EPM after cocaine (cocaine-induced anxiety)” value ([9]; propranolol 5 mg/kg i.p. 10 min prior to cocaine 20 mg/kg i.p.) is reported as “blocked; also recorded: attenuates cocaine-induced anxiety”. The “baseline EPM performance” value ([9]; propranolol 5 mg/kg i.p., saline instead of cocaine) was “no effect”.

For `COC(=O)[C@@H]1[C@H]2C[C@H]3c4[nH]c5ccccc5c4CCN3C[C@@H]2CC[C@@H]1O` [yohimbine], the “percent open arm time in EPM after cocaine (cocaine-induced anxiety)” value [7] was “preserved; also recorded: did not” and the “percent open time in EPM” value [7] was “no significant effect”.
